Patent publication US20230172206A1 (BASF SE, priority 2020, published 2023)
Where “and” joins values, the source holds several entries; their conditions need not be identical. Identical values can stand only once.

Tests used:
Cercospora sojina = assay type: cell-based; conditions: 4 ppm, 7 days after inoculation, relative to compound-free control (100%)
[1] = tested on: Alternaria solani (F129L); test: Micro titer plate test against early blight (ALTESO F129L); assay type: cell-based; conditions: 0.016 ppm, 7 days after inoculation, relative to compound-free control (100%)
Alternaria solani (wt) = assay type: cell-based; conditions: 0.016 ppm, 7 days after inoculation, relative to compound-free control (100%)
Septoria tritici = test: Micro titer plate test against leaf blotch on wheat (SEPTTR); assay type: cell-based; conditions: 0.25 ppm, 7 days after inoculation, relative to compound-free control (100%)
[2] = tested on: Phakopsora pachyrhizi (F129L); test: Protective control of soybean rust on soybeans (PHAKPA P6); assay type: in vivo; conditions: for % PHAKPA (F129L) Disease level P6 at 4 ppm: protective P6, 4 ppm; for % PHAKPA (F129L) Disease level P6 at 4 ppm / % PHAKPA (F129L) Disease level P6 at 16 ppm: F129L isolate; for % PHAKPA (F129L) Disease level P6 at 16 ppm: protective P6, 16 ppm
[3] = tested on: Phakopsora pachyrhizi (F129L); test: Protective control of soybean rust on soybeans (PHAKPA P2); assay type: in vivo; conditions: F129L isolate; for % PHAKPA (F129L) Disease level P2 at 4 ppm: protective P2, 4 ppm; for % PHAKPA (F129L) Disease level P2 at 16 ppm: protective P2, 16 ppm

Row | SMILES | Fungal growth (%) CERCSO (Cercospora sojina) [%] | Fungal growth (%) ALTESO F129L [1] [%] | Fungal growth (%) ALTESO wt (Alternaria solani (wt)) [%] | Fungal growth (%) SEPTTR (Septoria tritici) [%] | PHAKPA (F129L) Disease level (%) P6 at 16 ppm ([2]; protective, inoculation six days after spraying, 16 ppm, % diseased leaf area, listed as Ex. 9) | % PHAKPA (F129L) Disease level P2 at 4 ppm [3] [%] | % PHAKPA (F129L) Disease level P2 at 16 ppm [3] [%] | % PHAKPA (F129L) Disease level P6 at 4 ppm [2] [%] | % PHAKPA (F129L) Disease level P6 at 16 ppm [2] [%]
1 | CO/N=C(/C(=O)OC)c1cccc(C)c1CO/N=C(\OC)c1cccc(C(F)(F)F)c1 | 56 | – | – | – | – | – | – | – | –
2 | CNC(=O)/C(=N/OC)c1cccc(C)c1CO/N=C(\SC)c1cccc(C(F)(F)F)c1 | 66 | 85 | – | – | – | – | – | – | –
3 | CO/N=C(/C(=O)OC)c1cccc(C)c1CO/N=C(\OC)c1cccc(C)c1 | 67 | 81 | 93 | – | – | – | – | – | –
4 | CNC(=O)/C(=N/OC)c1cccc(C)c1CO/N=C(\OC)c1cccc(C)c1 | – | 95 | 93 | 100 | – | – | – | – | –
5 | CO/N=C(/C(=O)OC)c1cccc(C)c1CO/N=C(\C)c1cccc(C(F)(F)F)c1 [compound 9] | 11 | – | 73 | – | 4% and 1% | – | – | – | –
6 | CO/C=C(/C(=O)OC)c1cccc(C)c1CO/N=C(\C)c1ccc(-c2ccccc2)cc1OC(F)(F)F [compound 433] | – | – | – | – | – | 83 | 67 | 80 | 57
7 | CNC(=O)/C(=N/OC)c1cccc(C)c1CO/N=C(\C)c1ccc(-c2ccccc2)cc1OC(F)(F)F [compound 435] | – | – | – | – | – | 93 | 57 | 87 | 60
8 | CO/C=C(/C(=O)OC)c1cccc(C)c1CO/N=C(\C)c1c(Cl)cc(Cl)cc1OC(F)(F)F [compound 436] | – | – | – | – | – | 70 | 15 | 73 | 27
9 | CO/C=C(/C(=O)OC)c1cccc(C)c1CO/N=C(\C)c1ccccc1CC(F)(F)F [compound 437] | – | – | – | – | – | 2 | 0 | 8 | 0
10 | CNC(=O)/C(=N/OC)c1cccc(C)c1CO/N=C(\C)c1c(Cl)ccc(F)c1OC(F)(F)F [compound 440] | – | – | – | – | – | 93 | 23 | 73 | 23
11 | CNC(=O)/C(=N/OC)c1cccc(C)c1CO/N=C(\C)c1c(Cl)ccc(Cl)c1OC(F)(F)F [compound 441] | – | – | – | – | – | 100 | 43 | 97 | 50
12 | CO/C=C(/C(=O)OC)c1cccc(C)c1CO/N=C(\C)c1c(Cl)ccc(F)c1OC(F)(F)F [compound 442] | – | – | – | – | – | 100 | 93 | 80 | 77
13 | CO/C=C(/C(=O)OC)c1cccc(C)c1CO/N=C(\C)c1c(Cl)ccc(Cl)c1OC(F)(F)F [compound 444] | – | – | – | – | – | 100 | 47 | 83 | 53
14 | CO/C=C(/C(=O)OC)c1cccc(C)c1CO/N=C(\C)c1ccc(Br)cc1C(F)(F)F [compound 445] | – | – | – | – | – | 15 | 1 | 30 | 2
15 | CO/C=C(/C(=O)OC)c1cccc(C)c1CO/N=C(\C)c1ccc(C)cc1C(F)(F)F [compound 446] | – | – | – | – | – | 2 | 0 | 6 | 0
16 | CO/N=C(/C(=O)OC)c1cccc(C)c1CO/N=C(\C)c1ccc(F)c(F)c1OC(F)(F)F [compound 447] | – | – | – | – | – | 7 | 0 | 33 | 1
17 | CNC(=O)/C(=N/OC)c1cccc(C)c1CO/N=C(\C)c1ccc(Cl)c(F)c1OC(F)(F)F [compound 449] | – | – | – | – | – | 33 | 10 | 57 | 9
18 | CO/C=C(/C(=O)OC)c1cccc(C)c1CO/N=C(\C)c1ccc(F)c(F)c1OC(F)(F)F [compound 450] | – | – | – | – | – | 3 | 1 | 4 | 1
19 | CNC(=O)/C(=N/OC)c1cccc(C)c1CO/N=C(\C)c1ccc(F)c(F)c1OC(F)(F)F [compound 451] | – | – | – | – | – | 1 | 0 | 2 | 0
